Data on 6 compounds can be found in patent US20120289523A1, “PYRROLO [3,2-E] [1,2,4] TRIAZOLO [1,5-A] PYRIMIDINES DERIVATIVES AS INHIBITORS OF MICROGLIA ACTIVATION” (BTG INTERNATIONAL LIMITED, priority 2009, published 2012).

Series [1] addresses T1, CYP3A4 (Homo sapiens, UniProt P08684).
T1 construct: purchased Promega Corporation
Kind of series: Inhibition of cytochrome P450 (P450-Glo) CYP3A4. Format: biochemical. The settings on record: human recombinant enzyme, read-out: CYP450 Inhibition (IC50 microM) 3A4. The procedure:
(§1) Tests were carried out using human recombinant enzymes CYP1A2, CYP2C9, CYP2C19, CYP2D6 and CYP3A4 and P450-Glo™ screening system (Promega Corporation). Briefly, using a white opaque 96-well plate, one-fourth of the final reaction volume of a 4×cytochrome P450 reaction mixture containing the requisite luminogenic substrate was combined with an equal volume of the test compound (0.03-30 μM) or known inhibitor control at a 4×concentration to give one-half of the final reaction volume. A 10-minute pre-incubation was performed. One-half the final volume of the 2×NADPH regeneration system was then added to initiate the CYP reactions, and bring all components to their 1×target concentrations. The plate is incubated at 37° C. for 30 minutes. The luciferin detection reagent was added which stops the CYP reaction and initiates luminescence. The signal was allowed to stabilize for 20 minutes at room temperature and then the luminescence was read. The net CYP-dependent luminescence was calculated by subtracting the average luminescence of the control reactions from the CYP-containing reactions. Changes from the average net signal of untreated CYP reactions for reactions with a test compound reflect the inhibition of CYP activity by this compound.

Series [2] in a line: Metabolism of compounds, rat liver microsomes. It counts as in vitro ADME. To be noted: 1 μM compound, 0.3 mg/ml protein, 60 minutes at 37° C.; for half-life at 1 μM: rat, pooled liver microsomes, read-out: Microsomes t1/2 (mins) Rat. The procedure:
(§2) These were measured by incubating 1 μM test compound with pooled liver microsomes (0.3 mg/ml) protein for 60 minutes at 37° C. Samples were analysed by HPLC-MS/MS (Kuhnz, W. and Gieschen, H. (1998) Drug Metab. Dispos., 26, 1120-1127).
(In general: Liver microsomes are vesicles of endoplasmic reticulum, rich in cytochrome P450 enzymes.)

The test system of series [3] is Mouse BALB/c monocyte macrophages, J774.2. Kind of series: Inhibition of β-amyloid induced activation: nitric oxide release (Griess assay). To be noted: 20 μM Aβ(1-42), 50 U/ml Interferon gamma, 24 hours. It counts as cell-based. The procedure: (§3) Mouse BALB/c monocyte macrophages, J774.2, {ECACC 85011428} were grown and sub-cultured in cell media (DMEM containing 10% FBS, 1% L-glutamine and 1% penicillin/streptomycin). The J774 cells were plated at 100,000 cells/well in 50 μl cell media on 96 well plates and placed in a 37° C., 5% CO2 incubator overnight prior to experiments.
(§4) The addition of Aβ(1-42) and compounds to the J774 cells was performed using a Biotek precision 2000 liquid handling instrument. 3 μl of compound in DMSO ranging from 8 μM to 6 mM were pipetted into a “daughter plate” containing 294 μl of cell media and mixed thoroughly. 3 μl of Aβ(1-42) in DMSO at 4 mM was then added to the “daughter plate” and mixed thoroughly. 50 μl was then removed from the “daughter plate” and added to the plated J774 cells. The final concentrations in the wells containing 100 μl cell media were 20 μM Aβ(1-42), the compounds ranged from ˜40 nM to 30 μM in 1% DMSO and also in the presence of 50 U/ml Interferon gamma. The plates were incubated for 24 hours in a 37° C., 5% CO2 incubator. After 24 hours incubation the media from the wells were collected and stored at −20° C. until required for testing.
The nitric oxide levels in the media were tested using the Griess assay (Promega G2930) using the manufacturer's instructions.
In general terms: Nitrite, measured by Griess reagent, commonly stands in for NO production.

Series [4] shares this test system. Kind of series: Inhibition of β-amyloid induced activation: TNF-alpha levels in media (ELISA or Meso Scale Discovery kit). It counts as cell-based. To be noted: J774.2, 24 h, J774.2 cells, 20 μM Aβ(1-42), read-out: IC50 (μM) TNF-α. Here is the method: as §3, §4
The TNF-alpha levels in the media were tested using a TNF-alpha ELISA (R&D Systems MTA00) or Meso Scale Discovery MS6000 Mouse Proinflammatory-7 kit, using the manufacturers instructions.
(An ELISA detects its analyte on a solid surface through an enzyme-linked reagent.)

A short description of series [5]: Metabolism of compounds, human liver microsomes. To be noted: 1 μM compound, 0.3 mg/ml protein, 60 minutes at 37° C.; for half-life at 1 μM: human, pooled liver microsomes, read-out: Microsomes t1/2 (mins) Human. Format: in vitro ADME. The procedure:
as §2

In series [6] the test system is human colon adeno-carcinoma cell line Caco-2 or sub-clone TC7. The experiment in a line: Cell permeability of compounds (Caco-2 or TC7 monolayers). Format: in vitro ADME. To be noted: 10 μM; for Cell Perm A-B/B-A: ratio of Papp A-B to B-A, 60 minutes. The procedure:
(§5) These were measured using the accepted in vitro intestinal epithelial model using either the human colon adeno-carcinoma cell line Caco-2 or a sub-clone of this cell line, TC7. The apparent permeability coefficient (Papp) was determined in the apical-to-basolateral (A-B) and the B-A directions across cell monolayers cultured on 96-well polycarbonate membrane filters. Compounds were tested at 10 μM with a final DMSO concentration of 1%. The assay plate was incubated for 60 minutes at 37° C. with gentle shaking. Samples were taken at time zero from the donor side and at the end of the incubation from both donor and receiver sides. Samples were analysed by HPLC-MS/MS. The Papp value (expressed as 10^−6 cm/sec) was then calculated based on the appearance rate of the compound in the receiver side (Gres, M. C. et al. (1998) Pharm. Res., 15, 726-733).

Assay in series [7]: as above
It counts as in vitro ADME, human. To be noted: human, Caco-2, apical-to-basolateral, 60 minutes at 37° C., read-out: Cell Perm A-B. The procedure: as §5

The target of series [8] is T2, CYP2D6 (Homo sapiens, UniProt P10635).
T2 construct: purchased Promega Corporation
T2 sequence (P10635 whole entry): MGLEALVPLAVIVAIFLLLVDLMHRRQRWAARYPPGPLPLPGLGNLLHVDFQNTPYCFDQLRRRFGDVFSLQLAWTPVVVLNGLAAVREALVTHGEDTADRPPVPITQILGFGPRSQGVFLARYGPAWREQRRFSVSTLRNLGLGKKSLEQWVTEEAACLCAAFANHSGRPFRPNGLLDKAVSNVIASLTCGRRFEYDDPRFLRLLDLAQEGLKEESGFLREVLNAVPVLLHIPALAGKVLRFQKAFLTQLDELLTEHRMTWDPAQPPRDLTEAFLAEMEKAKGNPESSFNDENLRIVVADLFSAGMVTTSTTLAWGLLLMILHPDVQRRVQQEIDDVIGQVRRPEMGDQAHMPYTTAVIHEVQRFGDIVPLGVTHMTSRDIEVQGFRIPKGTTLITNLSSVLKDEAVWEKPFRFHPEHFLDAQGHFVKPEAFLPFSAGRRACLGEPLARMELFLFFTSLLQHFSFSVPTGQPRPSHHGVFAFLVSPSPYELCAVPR
Kind of series: Inhibition of cytochrome P450 (P450-Glo) CYP2D6. It counts as biochemical. The settings on record: human recombinant enzyme, read-out: CYP450 Inhibition (IC50 microM) 2D6. Here is the method:
as §1

Series [9] addresses T3, CYP1A2 (Homo sapiens, UniProt P05177).
T3 construct: purchased Promega Corporation
T3 sequence (P05177 1-516): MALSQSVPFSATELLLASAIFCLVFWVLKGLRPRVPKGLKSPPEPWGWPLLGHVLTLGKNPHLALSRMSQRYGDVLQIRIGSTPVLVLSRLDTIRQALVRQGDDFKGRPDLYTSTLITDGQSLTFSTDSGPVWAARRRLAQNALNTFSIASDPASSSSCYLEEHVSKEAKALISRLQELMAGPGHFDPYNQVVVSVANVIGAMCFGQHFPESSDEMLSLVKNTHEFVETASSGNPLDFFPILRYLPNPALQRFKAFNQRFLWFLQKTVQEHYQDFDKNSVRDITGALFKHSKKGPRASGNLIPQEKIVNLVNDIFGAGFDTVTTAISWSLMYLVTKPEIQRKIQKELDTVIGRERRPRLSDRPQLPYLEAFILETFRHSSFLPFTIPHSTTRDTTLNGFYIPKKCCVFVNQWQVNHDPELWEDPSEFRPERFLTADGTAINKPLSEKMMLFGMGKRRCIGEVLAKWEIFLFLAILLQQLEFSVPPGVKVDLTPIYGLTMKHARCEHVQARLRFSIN
Kind of series: Inhibition of cytochrome P450 (P450-Glo) CYP1A2. Format: biochemical. The settings on record: human recombinant enzyme, read-out: CYP450 Inhibition (IC50 microM) 1A2. Here is the method:
as §1, with “Briefly, using a white opaque 96-well plate, one-fourth of the final reaction volume of a 4×cytochrome P450 reaction mixture containing the requisite luminogenic substrate was combined with an equal volume of the test compound (0.03-30 μM) or known inhibitor control at a 4×concentration to give one-half of the final reaction volume.” left out

Series [10] deals with T4, CYP2C19 (Homo sapiens, UniProt P33261).
T4 construct: purchased Promega Corporation
T4 sequence (P33261 whole entry): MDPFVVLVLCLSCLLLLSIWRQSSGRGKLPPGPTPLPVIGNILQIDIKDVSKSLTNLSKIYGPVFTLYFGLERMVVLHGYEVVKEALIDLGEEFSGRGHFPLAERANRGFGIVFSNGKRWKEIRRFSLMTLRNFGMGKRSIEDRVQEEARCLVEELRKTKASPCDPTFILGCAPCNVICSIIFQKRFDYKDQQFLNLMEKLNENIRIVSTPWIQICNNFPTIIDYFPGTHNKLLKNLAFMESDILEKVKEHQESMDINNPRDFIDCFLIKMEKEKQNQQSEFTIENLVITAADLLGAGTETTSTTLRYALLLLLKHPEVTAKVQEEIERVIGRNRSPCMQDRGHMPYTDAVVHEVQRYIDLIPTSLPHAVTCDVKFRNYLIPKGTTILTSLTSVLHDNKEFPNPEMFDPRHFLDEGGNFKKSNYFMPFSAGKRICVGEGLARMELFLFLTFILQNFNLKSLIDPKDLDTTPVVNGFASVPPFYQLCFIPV
The experiment in a line: Inhibition of cytochrome P450 (P450-Glo) CYP2C19. Format: biochemical. To be noted: human recombinant enzyme, read-out: CYP450 Inhibition (IC50 microM) 2C19. Here is the method: as §1

In series [11] the target is T5, CYP2C9 (Homo sapiens, UniProt P11712).
T5 construct: purchased Promega Corporation
T5 sequence (P11712 whole entry): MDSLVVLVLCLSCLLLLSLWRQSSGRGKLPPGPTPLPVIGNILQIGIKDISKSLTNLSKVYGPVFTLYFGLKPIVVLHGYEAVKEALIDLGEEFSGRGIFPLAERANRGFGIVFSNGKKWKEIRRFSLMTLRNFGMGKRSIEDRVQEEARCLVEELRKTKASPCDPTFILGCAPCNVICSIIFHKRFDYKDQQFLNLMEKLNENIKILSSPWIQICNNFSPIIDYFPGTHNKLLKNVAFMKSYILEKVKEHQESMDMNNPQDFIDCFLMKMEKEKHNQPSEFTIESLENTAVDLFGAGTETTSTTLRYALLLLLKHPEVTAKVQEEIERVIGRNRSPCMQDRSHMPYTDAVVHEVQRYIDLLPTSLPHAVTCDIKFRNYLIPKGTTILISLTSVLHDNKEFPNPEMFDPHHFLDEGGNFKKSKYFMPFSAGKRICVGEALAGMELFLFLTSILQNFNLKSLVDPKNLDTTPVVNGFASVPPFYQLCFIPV
Kind of series: Inhibition of cytochrome P450 (P450-Glo) CYP2C9. Format: biochemical. The settings on record: human recombinant enzyme, read-out: CYP450 Inhibition (IC50 microM) 2C9. Here is the method:
as §1

Where [12] appears, read: Table 2, J774.2 cells, read-out: IC50 (μM) NO.
[13] abbreviates: **Level of TNF for Aβ(1-42) alone: 13184 pg/mL.
The mark [14] stands for this setting: *Level of TNF for Aβ(1-42) alone: 9699 pg/mL.
Where [15] appears, read: Table 1, identification of the active enantiomer, J774.2 cells, read-out: IC50 measured by inhibition of Nitric Oxide release.

T1 sequence (P08684 whole entry): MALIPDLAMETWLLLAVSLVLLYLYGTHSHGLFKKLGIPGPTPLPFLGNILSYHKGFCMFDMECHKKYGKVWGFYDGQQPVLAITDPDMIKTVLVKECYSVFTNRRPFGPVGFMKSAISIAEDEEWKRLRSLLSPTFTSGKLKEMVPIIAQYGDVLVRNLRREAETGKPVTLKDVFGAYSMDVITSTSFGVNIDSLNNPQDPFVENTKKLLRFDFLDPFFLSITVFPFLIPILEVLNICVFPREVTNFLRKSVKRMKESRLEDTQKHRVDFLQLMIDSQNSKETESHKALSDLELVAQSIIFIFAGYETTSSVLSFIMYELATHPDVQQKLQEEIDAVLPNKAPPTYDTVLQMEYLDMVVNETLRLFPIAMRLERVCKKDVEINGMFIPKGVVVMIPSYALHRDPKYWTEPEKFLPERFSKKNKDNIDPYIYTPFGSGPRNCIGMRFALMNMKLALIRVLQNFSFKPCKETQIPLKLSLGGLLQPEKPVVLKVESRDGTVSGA

As to `Cc1nc2ncnn2c2c1CCN2[C@H](c1ccc(F)cc1)C(F)(F)F` [Compound 2, (R)-5-Methyl-8-[2,2,2-trifluoro-1-(4-fluorophenyl)ethyl]-7,8-dihydro-6H-pyrrolo[3,2e][1,2,4]triazolo[1,5-a]pyrimidine], the IC50 in series [1] was 19 µM; in series [3] (setting [12]), 0.8 µM; in series [4] (setting [13]), 3.2 µM; in series [4] (setting [14]), 0.91 µM; in series [8] it was above 20 µM; in [9], above 20 µM. Besides, the IC50 in series [10] and in [11] was above 20 µM throughout. Further, the figures for the half-life at 1 μM in [2] and in series [5] were 60 min and above 60 min, respectively. The “Cell Perm A-B/B-A” value in series [6] turned out to be 0.37. Also, the Papp A→B at 60 min, 10 μM in series [7] was 72 ×10⁻⁶ cm/s.

`Cc1nc2ncnn2c2c1CCN2[C@H](C)c1ccccc1` [Compound 6, (R)-8-[1-(Phenyl)ethyl]-5-methyl-7,8-dihydro-6H-pyrrolo[3,2e][1,2,4]triazolo[1,5-a]pyrimidine]: the IC50 in series [3] (setting [15]) amounted to 30 µM.

With `Cc1nc2ncnn2c2c1CCN2[C@@H](C)c1ccccc1` [Compound 5, (S)-8-[1-(Phenyl)ethyl]-5-methyl-7,8-dihydro-6H-pyrrolo[3,2e][1,2,4]triazolo[1,5-a]pyrimidine], the IC50 was 0.53 µM in series [1]; 1.5 µM in [3] (setting [15]); 1.5 µM in series [3] (setting [12]); 2.3 µM in series [4] (setting [13]); 21 µM in [8]; above 100 µM in series [9]. For the same compound, the IC50 in [10] was 13 µM; in [11], above 100 µM. Moreover, the half-life at 1 μM was 15 min in series [2] and above 60 min in series [5]. Moreover, the “Cell Perm A-B/B-A” value in [6] was found to be 0.85. For the same compound, the Papp A→B at 60 min, 10 μM in series [7] is 35 ×10⁻⁶ cm/s.

Take `Cc1nc2ncnn2c2c1CCN2[C@@H](C)c1ccc(F)cc1` [Compound 7, (S)-8-[1-(4-Fluorophenyl)ethyl]-5-methyl-7,8-dihydro-6H-pyrrolo [3,2e][1,2,4]triazolo[1,5-a]pyrimidine]: the IC50 is 0.83 µM in [1]; 15 µM in series [8]; 99 µM in [9]; 7 µM in [10]; 27 µM in [11]. Further, in series [2], the “Microsomes t1/2 (mins) Rat” value came out at 15 min. For the same compound, the “Microsomes t1/2 (mins) Human” value in series [5] is above 60 min. Moreover, the “Cell Perm (Papp 10^−6 cm s^−1) A-B” value in [6] (apical-to-basolateral, 60 minutes at 37° C.) was 33 10^−6 cm s^−1. In addition, the “Cell Perm A-B/B-A” value in series [6] is reported as 0.85.

Turning to `Cc1nc2ncnn2c2c1CCN2[C@H](c1ccccc1)C(F)(F)F` [Compound 1, (R)-5-Methyl-8-[2,2,2-trifluoro-1-phenylethyl]-7,8-dihydro-6H-pyrrolo[3,2e][1,2,4]-triazolo[1,5-a]pyrimidine], the melting point is 153 to 155 °C. For the same compound, the IC50 in series [1] stood at 8 µM. For the same compound, the half-life at 1 μM in series [2] turned out to be 35 min. Besides, the IC50 in series [3] (setting [12]) was 1.1 µM. The IC50 in series [4] (setting [14]) was found to be 1.44 µM. In addition, the half-life at 1 μM in series [5] was above 60 min. For the same compound, the “Cell Perm A-B/B-A” value in series [6] was 0.55. In addition, the Papp A→B at 60 min, 10 μM in series [7] amounted to 35 ×10⁻⁶ cm/s. Moreover, in series [8], the IC50 was above 20 µM. Moreover, in series [9], the IC50 was above 20 µM. Moreover, the IC50 in [10] is above 10 µM. In addition, the IC50 in series [11] amounted to 14 µM.

`Cc1nc2ncnn2c2c1CCN2C(C)c1ccccc1` (single isomer, unassigned) [Compound 4]: the IC50 was found to be 3 µM in series [3] (setting [15]), 3 µM in [3] (setting [12]) and 5.5 µM in [4] (setting [13]).

What is called IC50 is the concentration that gives 50% inhibition. The term melting point denotes the temperature of the solid-liquid transition.
